What was measured:
[1] = target: T1, adenosine A2A receptor (A2AR) (Homo sapiens, UniProt P29274); assay: A2AR/TREx CHO cAMP functional assay (antagonist mode, NECA EC80); assay type: cell-based
T1 construct: expressed in transfected cells
Description: Functional assays may also be employed to assess the compounds of the present invention. The cAMP assay described in detail below was used to evaluate certain compounds described herein.
Measurement of the Adenosine Receptor Activity of Compound I Using a A2AR/TREx CHO cAMP Functional Assay
Dose response of NECA (5-N-ethylcarboxamidoadenosine), a non-selective adenosine receptor agonist, was performed daily to determine the EC80 of NECA used in the cAMP functional assay. 1000-2500 cells/well of stably expressed A2AR TRex CHO cells were seeded to the 384-well Opti plate (Perkin Elmer) followed by incubating NECA at varies concentrations (ranging from 10 μM to 0 μM) at 37° C. for 30 min. […] FRET signal was detected with Envision multilabel plate reader (Perkin Elmer) when Eu-cAMP tracer excitation at 615 nm and emission at 665 nm. […]
The cAMP antagonist functional assay (Perkin Elmer) was performed on A2AR TRex CHO stable cell lines. […] FRET signal was detected when Eu-cAMP tracer excitation at 615 nm and emission at 665 nm. […]
Particular compounds were evaluated for adenosine A2A receptor activity as described for the cAMP assay above. […]

A2BR = target: T2, A2BR (Homo sapiens, UniProt P29275); assay: Potency on A2BR (no method described); conditions: summary statement
T2 sequence (P29275 1-332): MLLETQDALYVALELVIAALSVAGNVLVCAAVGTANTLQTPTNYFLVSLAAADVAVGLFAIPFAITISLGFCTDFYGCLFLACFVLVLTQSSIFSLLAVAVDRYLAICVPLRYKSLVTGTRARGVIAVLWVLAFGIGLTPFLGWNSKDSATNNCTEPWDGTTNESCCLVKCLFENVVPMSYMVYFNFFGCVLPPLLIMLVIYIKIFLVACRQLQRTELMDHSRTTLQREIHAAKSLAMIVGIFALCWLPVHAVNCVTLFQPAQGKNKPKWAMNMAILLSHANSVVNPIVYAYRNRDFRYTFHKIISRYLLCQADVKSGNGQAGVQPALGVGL

T1 sequence (P29274 whole entry): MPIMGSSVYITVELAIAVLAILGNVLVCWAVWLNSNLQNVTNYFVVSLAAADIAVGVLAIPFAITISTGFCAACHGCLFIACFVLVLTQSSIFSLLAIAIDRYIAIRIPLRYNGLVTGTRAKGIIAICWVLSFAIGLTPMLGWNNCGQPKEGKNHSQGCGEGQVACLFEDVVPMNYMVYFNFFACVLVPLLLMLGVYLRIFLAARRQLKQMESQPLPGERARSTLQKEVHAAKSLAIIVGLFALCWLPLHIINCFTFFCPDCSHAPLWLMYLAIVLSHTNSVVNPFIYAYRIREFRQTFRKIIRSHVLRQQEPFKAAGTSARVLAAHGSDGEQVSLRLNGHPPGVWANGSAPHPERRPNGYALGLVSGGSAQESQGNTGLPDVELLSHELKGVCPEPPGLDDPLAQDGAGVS

## Cc1c(C#N)cccc1-c1cc(-c2cn(Cc3cccc(C(C)(C)O)n3)nn2)nc(N)n1 [Compound I, 3-[2-amino-6-(1-{[6-(2-hydroxypropan-2-yl)pyridin-2-yl]methyl}-1H-1,2,3-triazol-4-yl)pyrimidin-4-yl]-2-methylbenzonitrile]
[1]
  Kb: < 10 nM
[1]; summary statement
  potency on A2AR (antagonist): less than 10 nM
A2BR
  potency on A2BR (antagonist): less than 10 nM
